Laboratory results as given in article PMC6009888, “Design, synthesis, and pharmacological evaluation of 2-amino-5-nitrothiazole derived semicarbazones as dual inhibitors of monoamine oxidase and cholinesterase: effect of the size of aryl binding site” (Journal of Enzyme Inhibition and Medicinal Chemistry, 2017).

target: T1, rat brain AChE (Rattus norvegicus, UniProt P37136); assay: biochemical; assay type: biochemical; details: rat brain AChE, ACTI substrate, mean ± SEM, triplicate; read-out: AChE In vitro IC50 (µM) ± SEM
T1 construct: the resulting clear supernatants obtained were used as enzyme sources; from tissue; host or cells: rat brain cortex homogenate, 10,000 g supernatant
Procedure: Rat brain was used as a source of AChE enzyme. Rats were separately decapitated, the brain cortices quickly removed, weighed and homogenised in cold 10 mM Tris-HCl buffer, pH 7.2, containing 160 mM sucrose. The homogenates were centrifuged at 10,000 g for 10 min at 4 °C, and the resulting clear supernatants obtained were used as enzyme sources that were divided into aliquots and stored at −20 °C.
About 30 µl of enzyme sample (AChE) was added to 60 µl of 20 mM sodium phosphate buffer (pH 7.4) and were incubated in the presence of 30 µl of 10 mM DTNB solution with different concentrations of the test compounds. The enzyme reaction was initiated by the addition of 30 µl of 0.8 mM ACTI. The mixtures were incubated for 15 min at 25 °C. […] Control experiments were carried out without inhibitor, and blanks were run without AChE enzyme. All the assays were performed in triplicate. IC50 values were determined using the GraphPad Prism 5.0 (San Diego, CA) and the results were expressed as mean ± SEM.
(§1) 0, 15, 30 and 60 min at 25 °C in sodium phosphate buffer (20 mM, pH 7.4) and DTNB solution (10 mM). […] The reaction was further incubated at 25 °C for a further 15 min and the residual enzyme activities were measured and the bar graphs were constructed. All measurements were carried out in triplicate and are expressed as mean ± SEM.

T1 sequence (P37136 32-614): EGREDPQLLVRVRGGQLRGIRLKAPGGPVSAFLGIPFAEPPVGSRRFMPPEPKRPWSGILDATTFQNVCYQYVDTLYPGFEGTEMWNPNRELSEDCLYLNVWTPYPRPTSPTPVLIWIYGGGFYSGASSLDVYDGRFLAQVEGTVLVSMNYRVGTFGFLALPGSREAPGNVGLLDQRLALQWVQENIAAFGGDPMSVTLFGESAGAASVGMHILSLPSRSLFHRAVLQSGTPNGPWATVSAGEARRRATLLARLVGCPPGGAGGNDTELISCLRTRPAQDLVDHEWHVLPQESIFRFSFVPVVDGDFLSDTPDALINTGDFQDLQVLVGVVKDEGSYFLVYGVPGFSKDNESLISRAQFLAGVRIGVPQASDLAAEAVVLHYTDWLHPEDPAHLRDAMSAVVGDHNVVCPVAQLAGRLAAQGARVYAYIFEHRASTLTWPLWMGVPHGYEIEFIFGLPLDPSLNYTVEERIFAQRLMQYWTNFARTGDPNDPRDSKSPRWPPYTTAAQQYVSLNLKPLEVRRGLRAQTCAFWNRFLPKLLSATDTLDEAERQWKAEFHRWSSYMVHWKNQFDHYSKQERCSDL

**Q.** For `O=C(NN=C1C(=O)Nc2ccccc21)Nc1ncc([N+](=O)[O-])s1` [Compound 20, 4-(5-Nitrothiazol-2-yl)-1-(2-oxoindolin-3-ylidene)semicarbazide], which IC50 is on record?
**A.** 54.8 ± 0.92 µM

**Q.** For `O=C(NN=Cc1ccc(Cl)cc1Cl)Nc1ncc([N+](=O)[O-])s1` [Compound 13, 1-(2,4-Dichlorobenzylidene)-4-(5-nitrothiazol-2-yl)semicarbazide], which IC50 is on record?
**A.** 141 ± 3.11 µM

test system: not listed separately; assay: physchem; details: octanol/water

**Q.** Which logP does the source give for `O=C(NN=C1C(=O)Nc2ccccc21)Nc1ncc([N+](=O)[O-])s1` [Compound 20, 4-(5-Nitrothiazol-2-yl)-1-(2-oxoindolin-3-ylidene)semicarbazide] here?
**A.** 1.1

**Q.** For `O=C(NN=Cc1ccc(Cl)cc1Cl)Nc1ncc([N+](=O)[O-])s1` [Compound 13, 1-(2,4-Dichlorobenzylidene)-4-(5-nitrothiazol-2-yl)semicarbazide], which logP is on record?
**A.** 2.5

test system: mice; assay: Neurotoxicity screening (rotarod test); assay type: in vivo; details: 30 mg/kg i.p., 0.5 h
Procedure: The neurotoxicity screening was undertaken according to the method followed by the National Institute of Health, using their reported procedures[55]^,[56]. Male albino mice (CF-1 strain or Swiss, 18–25 g) were used as experimental animals. The animals were housed in metabolic cages, and allowed free access to food and water. The test compounds were suspended in 0.5% methylcellulose/water mixture or in polyethylene glycol (PEG 200).
Minimal motor impairment was measured in mice by the rotarod test. The mice were trained to stay on an accelerating rotarod that rotates at six revolutions per minute. The rod diameter was 3.2 cm. Trained animals were given i.p. injection of the selected inhibitors at a dose of 30 mg/kg. Neurotoxicity was indicated by the inability of the animal to maintain equilibrium on the rod for at least 1 min in each of the three trials.

**Q.** For `O=C(NN=C1C(=O)Nc2ccccc21)Nc1ncc([N+](=O)[O-])s1` [Compound 20, 4-(5-Nitrothiazol-2-yl)-1-(2-oxoindolin-3-ylidene)semicarbazide], which “Neurotoxicity (animals that exhibit toxicity / animals tested)” value is on record?
**A.** 0/4

**Q.** Which “Neurotoxicity (animals that exhibit toxicity / animals tested)” value does the source give for `O=C(NN=Cc1ccc(Cl)cc1Cl)Nc1ncc([N+](=O)[O-])s1` [Compound 13, 1-(2,4-Dichlorobenzylidene)-4-(5-nitrothiazol-2-yl)semicarbazide] here?
**A.** 0/4

same assay, conditions: 30 mg/kg i.p., 1 h

**Q.** Which “Neurotoxicity (animals that exhibit toxicity / animals tested)” value does the source give for `O=C(NN=C1C(=O)Nc2ccccc21)Nc1ncc([N+](=O)[O-])s1` [Compound 20, 4-(5-Nitrothiazol-2-yl)-1-(2-oxoindolin-3-ylidene)semicarbazide] here?
**A.** 0/4

**Q.** For `O=C(NN=Cc1ccc(Cl)cc1Cl)Nc1ncc([N+](=O)[O-])s1` [Compound 13, 1-(2,4-Dichlorobenzylidene)-4-(5-nitrothiazol-2-yl)semicarbazide], which “Neurotoxicity (animals that exhibit toxicity / animals tested)” value is on record?
**A.** 0/4

same assay, conditions: 30 mg/kg i.p., 2 h

**Q.** With `O=C(NN=C1C(=O)Nc2ccccc21)Nc1ncc([N+](=O)[O-])s1` [Compound 20, 4-(5-Nitrothiazol-2-yl)-1-(2-oxoindolin-3-ylidene)semicarbazide] as the molecule, how does the “Neurotoxicity (animals that exhibit toxicity / animals tested)” value read?
**A.** 0/4

**Q.** For `O=C(NN=Cc1ccc(Cl)cc1Cl)Nc1ncc([N+](=O)[O-])s1` [Compound 13, 1-(2,4-Dichlorobenzylidene)-4-(5-nitrothiazol-2-yl)semicarbazide], which “Neurotoxicity (animals that exhibit toxicity / animals tested)” value is on record?
**A.** 0/4

same assay, conditions: 30 mg/kg i.p., 4 h

**Q.** For `O=C(NN=C1C(=O)Nc2ccccc21)Nc1ncc([N+](=O)[O-])s1` [Compound 20, 4-(5-Nitrothiazol-2-yl)-1-(2-oxoindolin-3-ylidene)semicarbazide], which “Neurotoxicity (animals that exhibit toxicity / animals tested)” value is on record?
**A.** 0/4

**Q.** Which “Neurotoxicity (animals that exhibit toxicity / animals tested)” value does the source give for `O=C(NN=Cc1ccc(Cl)cc1Cl)Nc1ncc([N+](=O)[O-])s1` [Compound 13, 1-(2,4-Dichlorobenzylidene)-4-(5-nitrothiazol-2-yl)semicarbazide] here?
**A.** 0/4

target: T2, MAO-A (Rattus norvegicus, UniProt P21396); assay: In vitro MAO-A inhibition assay (rat brain mitochondria, serotonin substrate); assay type: biochemical; details: rat brain mitochondria, serotonin substrate, mean ± SEM, triplicate; read-out: MAO-A In vitro IC50 (µM) ± SEM
T2 construct: employing crude rat brain mitochondrial suspension; from tissue; host or cells: brain mitochondria of adult Wistar rats
T2 sequence (P21396 1-526): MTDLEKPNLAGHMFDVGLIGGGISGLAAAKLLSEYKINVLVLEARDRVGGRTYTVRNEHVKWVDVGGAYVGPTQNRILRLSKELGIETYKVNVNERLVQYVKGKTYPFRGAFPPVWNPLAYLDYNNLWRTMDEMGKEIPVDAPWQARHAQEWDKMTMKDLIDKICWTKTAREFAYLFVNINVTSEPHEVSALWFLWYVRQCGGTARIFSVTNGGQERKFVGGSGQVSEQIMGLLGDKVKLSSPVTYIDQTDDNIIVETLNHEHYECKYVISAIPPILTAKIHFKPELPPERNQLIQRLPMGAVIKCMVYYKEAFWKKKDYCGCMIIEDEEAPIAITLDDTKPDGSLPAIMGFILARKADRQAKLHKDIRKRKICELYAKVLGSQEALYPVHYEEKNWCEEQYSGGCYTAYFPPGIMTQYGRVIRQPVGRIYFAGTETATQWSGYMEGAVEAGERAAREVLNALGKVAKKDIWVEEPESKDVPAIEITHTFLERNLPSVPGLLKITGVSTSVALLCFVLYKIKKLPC
Procedure: (§2) Rat brain mitochondria were used as a source of MAO isoforms. All operations were carried out at 4 °C[50]. Male and female adult Wistar rats weighing 200–220 g were decapitated. All brains were rapidly removed and homogenised with a Potter–Elvehjem homogeniser in cold 0.32 M sucrose and 50 mM Tris-HCl, pH 8.2 (10:1, v/w). The homogenate was centrifuged twice at 1000 g for 5 min at 4 °C. The resulting supernatant was centrifuged at 20,000 g for 20 min. The mitochondrial pellet obtained was suspended in 100 mM sodium phosphate buffer, pH 7.4 (4:1, v/w), fractionated in plastic vials to 500 µl samples and stored at −80 °C. Before use, mitochondria were diluted with 100 mM sodium phosphate buffer to give a working solution of 0.80 mg of protein per millilitre.
(§3) The experiments were carried out under all the suitable laboratory conditions. […] An aliquot was made to contain mixture of 55 µl mitochondrial suspension (0.80 mg of protein/ml), 90 µl 50 mM Tris-HCl buffer, pH 8.2 and 30 µl solubilising solution (control or inhibitor solution at five different concentrations). The reaction was initiated by adding 25 µl of serotonin (4 mM, substrate for MAO-A) and 25 µl benzylamine (0.1 M, substrate for MAO-B) for the determination of MAO-A and MAO-B activity, respectively. The mixture was incubated at 37 °C for 30 min and the reaction was stopped by the addition of 50 µl of 1 N HCl. The absorbance associated with the production of 5-hydroxyindolacetic acid was measured at 280 nm for the estimation of MAO-A while for MAO-B estimation, the absorbance was measured at 250 nm due to the formation of benzaldehyde. All the assays were performed in triplicate. Control experiments were carried out without inhibitor and blanks were run without mitochondrial suspension.
(§4) Data are expressed as mean ± standard error mean (SEM) of experiments performed in triplicate.
as §1, with “37” for “25”, “Tris-HCl” for “sodium phosphate”, “(50” for “(20”, “8.2).” for “7.4) and DTNB solution (10 mM).”, “reactions were” for “reaction was”

**Q.** Which IC50 does the source give for `O=C(NN=C1C(=O)Nc2ccccc21)Nc1ncc([N+](=O)[O-])s1` [Compound 20, 4-(5-Nitrothiazol-2-yl)-1-(2-oxoindolin-3-ylidene)semicarbazide] here?
**A.** 2250 ± 12.8 µM

**Q.** With `O=C(NN=Cc1ccc(Cl)cc1Cl)Nc1ncc([N+](=O)[O-])s1` [Compound 13, 1-(2,4-Dichlorobenzylidene)-4-(5-nitrothiazol-2-yl)semicarbazide] as the molecule, how does the IC50 read?
**A.** 10470 ± 13.9 µM

test system: not listed separately; assay: In vitro DPPH radical scavenging assay; details: test sample 100 µg/ml, 100 µM methanolic DPPH, 30 min, 517 nm
Procedure: Antioxidant activity of the synthesised compounds (10 mg/ml) was evaluated using the radical scavenging capability against the stable free radical, 2,2′-diphenyl-1-picryl hydrazyl (DPPH·). The DPPH· scavenging capability was determined using UV based spectrophotometric assay. About 200 µl of the test sample solution (100 µg/ml) was added to 4 ml of 100 µM methanolic DPPH. […] Ascorbic acid (100 µg/ml) was used as reference. The percentage inhibition of DPPH activity was estimated using the formula: Percent (%) inhibition of DPPH activity = Acontrol-Asample/Acontrol×100 where Acontrol is the absorbance of DPPH· in methanol without an antioxidant and Asample is the absorbance of DPPH· in the presence of an antioxidant.

**Q.** With `O=C(NN=C1C(=O)Nc2ccccc21)Nc1ncc([N+](=O)[O-])s1` [Compound 20, 4-(5-Nitrothiazol-2-yl)-1-(2-oxoindolin-3-ylidene)semicarbazide] as the molecule, how does the “% inhibition of DPPH activity” value read?
**A.** 47.16%

**Q.** For `O=C(NN=Cc1ccc(Cl)cc1Cl)Nc1ncc([N+](=O)[O-])s1` [Compound 13, 1-(2,4-Dichlorobenzylidene)-4-(5-nitrothiazol-2-yl)semicarbazide], which “% inhibition of DPPH activity” value is on record?
**A.** 39.39%

target: T3, MAO-B (Rattus norvegicus, UniProt P19643); assay: biochemical; details: not given
T3 construct: employing crude rat brain mitochondrial suspension; from tissue; host or cells: brain mitochondria of adult Wistar rats
T3 sequence (P19643 1-520): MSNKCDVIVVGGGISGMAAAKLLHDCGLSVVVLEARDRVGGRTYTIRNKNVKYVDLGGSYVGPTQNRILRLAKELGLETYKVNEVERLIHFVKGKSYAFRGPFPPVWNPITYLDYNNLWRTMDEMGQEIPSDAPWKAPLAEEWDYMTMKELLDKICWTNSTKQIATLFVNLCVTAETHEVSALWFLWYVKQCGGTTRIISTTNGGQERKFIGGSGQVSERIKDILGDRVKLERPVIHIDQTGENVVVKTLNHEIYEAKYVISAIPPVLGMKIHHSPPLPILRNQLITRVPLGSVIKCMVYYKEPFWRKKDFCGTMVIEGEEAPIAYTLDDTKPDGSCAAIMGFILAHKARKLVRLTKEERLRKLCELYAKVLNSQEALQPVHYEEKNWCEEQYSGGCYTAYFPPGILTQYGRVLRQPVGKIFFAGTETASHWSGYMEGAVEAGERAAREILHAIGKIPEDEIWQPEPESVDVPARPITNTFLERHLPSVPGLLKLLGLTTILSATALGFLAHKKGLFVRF
Procedure: as §2, §3, §4
as §1, with “37” for “25”, “Tris-HCl” for “sodium phosphate”, “(50” for “(20”, “8.2).” for “7.4) and DTNB solution (10 mM).”, “reactions were” for “reaction was”

**Q.** With `O=C(NN=C1C(=O)Nc2ccccc21)Nc1ncc([N+](=O)[O-])s1` [Compound 20, 4-(5-Nitrothiazol-2-yl)-1-(2-oxoindolin-3-ylidene)semicarbazide] as the molecule, how does the IC50 read?
**A.** 4.51 ± 0.086 µM

**Q.** Which IC50 does the source give for `O=C(NN=Cc1ccc(Cl)cc1Cl)Nc1ncc([N+](=O)[O-])s1` [Compound 13, 1-(2,4-Dichlorobenzylidene)-4-(5-nitrothiazol-2-yl)semicarbazide] here?
**A.** 3.49 ± 0.098 µM

same assay, conditions: ratio of experimental IC50(MAO-A)/IC50(MAO-B)

**Q.** Which “SI (selectivity index for MAO-B)” value does the source give for `O=C(NN=C1C(=O)Nc2ccccc21)Nc1ncc([N+](=O)[O-])s1` [Compound 20, 4-(5-Nitrothiazol-2-yl)-1-(2-oxoindolin-3-ylidene)semicarbazide] here?
**A.** 499.22

**Q.** For `O=C(NN=Cc1ccc(Cl)cc1Cl)Nc1ncc([N+](=O)[O-])s1` [Compound 13, 1-(2,4-Dichlorobenzylidene)-4-(5-nitrothiazol-2-yl)semicarbazide], which “SI (selectivity index for MAO-B)” value is on record?
**A.** 3001.15
